Among the data in ChEMBL document CHEMBL1134808, “Evolution of anti-HIV drug candidates. Part 1: From alpha-anilinophenylacetamide (alpha-APA) to imidoyl thiourea (ITU)” (Bioorg Med Chem Lett, 2001) are IC50 values, retold here.

Assay [1] deals with Human immunodeficiency virus 1. In words: Compound potency to achieve protection of MT-4 cells from HIV-1 cytopathicity. The format is functional, organism-based, MT4. A general note: Cytopathic effects are the visible damage that an infection or toxin causes in cultured cells.
In assay [2] the test system is MT4. As to the kind of experiment: Compound was tested for potency to achieve protection of MT-4 cells from 103N strain of HIV-1 virus. The assay is classed as functional, cell-based. The note with it: Homo sapiens.
Assay [3] deals with MT4. As to the kind of experiment: Compound was tested for potency to achieve protection of MT-4 cells from 181C strain of HIV-1 virus. Particulars: Homo sapiens. The format is functional, cell-based.
Assay [4] has as its system MT4. As to the kind of experiment: Compound was tested for potency to achieve protection of MT-4 cells from 190A strain of HIV-1 virus. The format is functional, cell-based. The note with it: Homo sapiens.
Assay [5] deals with MT4. In words: Compound was tested for potency to achieve protection of MT-4 cells from 188L strain of HIV-1 virus. The assay is classed as functional, cell-based. Particulars: Homo sapiens.
In assay [6] the test system is MT4. In words: Compound was tested for potency to achieve protection of MT-4 cells from 101E strain of HIV-1 virus. The note with it: Homo sapiens. The assay is classed as functional, cell-based.
The subject of assay [7] is MT4. As to the kind of experiment: Compound was tested for potency to achieve protection of MT-4 cells from LAI strain of HIV-1 virus. Particulars: Homo sapiens. The assay is classed as functional, cell-based.
In assay [8] the test system is MT4. As to the kind of experiment: Compound was tested for potency to achieve protection of MT-4 cells from 100I strain of HIV-1 virus. Particulars: Homo sapiens. The assay is classed as functional, cell-based.
For assay [9], the system named is MT4. In words: Compound was tested for potency to achieve protection of MT-4 cells from 106A strain of HIV-1 virus. The assay is classed as functional, cell-based. Particulars: Homo sapiens.
The mark [10] stands for this setting: Human immunodeficiency virus 1, MT4.

Structures can show the parent of a compound that is named as a salt.

What is called IC50 is the concentration needed to halve the response being measured. In the case of `N=C(Cc1c(Cl)cccc1Cl)NC(=S)Nc1ccc(Cl)cc1`, the midpoint of inhibition in assay [1] (setting [10]), the IC50, lay at 13 nM. Regarding `N#Cc1ccc(NC(=N)NC(=N)Cc2c(Cl)cccc2Cl)cc1`, in assay [1] (setting [10]), the IC50 turned out to be 7940 nM. For `N#Cc1ccc(NC(=S)NC(=N)Cc2c(Cl)cccc2Cl)cc1`, the IC50 worked out at 589 nM in the assay with MT4 [2]; 511 nM in the assay on MT4 [3]; 2 nM in the assay with MT4 [4]; 3 nM in assay [1] (setting [10]); 2.5 nM in assay [1] (mt4); 318 nM in the assay with MT4 [5]. For the same compound, the half-maximal inhibitory concentration (IC50) with MT4 [6] worked out at 19 nM; with MT4 [7] it was 3 nM; in the assay on MT4 [8] it was 513 nM; in the assay with MT4 [9], 382 nM.

`N#Cc1ccc(NC(=S)NC(=N)C2(c3c(Cl)cccc3Cl)CC2)cc1` gave an IC50 in assay [1] (setting [10]) of 1480 nM. Same read-out and setting: under `C/N=C(/Cc1c(Cl)cccc1Cl)NC(=O)Nc1ccc(C#N)cc1` stands 214 nM; under `N#Cc1ccc(NC(=S)NC(=N)c2c(Cl)cccc2Cl)cc1`, 22900 nM. Regarding `CN/C(Cc1c(Cl)cccc1Cl)=N\C(S)=N\c1ccc(C#N)cc1`, in assay [1] (setting [10]), the IC50 was 3.9 nM. The same measure, in the same setting: with `N#Cc1ccc(N/C(S)=N/C(=N)Cc2c(F)cccc2F)cc1` the figure was 6 nM; with `N=C(Cc1c(Cl)cccc1Cl)NC(=S)NCc1ccc(Cl)cc1`, 692 nM; with `Cc1ccccc1CC(=N)/N=C(\S)Nc1ccc(C#N)cc1`, 26 nM. Same read-out and setting: under `CN(/C(S)=N/C(=N)Cc1c(Cl)cccc1Cl)c1ccc(C#N)cc1` stands 58900 nM. On to `NC(=O)C(Nc1ccc(Cl)cc1)c1c(Cl)cccc1Cl` (stereo not given), for which the IC50 in assay [1] (setting [10]) was above 160000 nM.

Compound `COc1ccccc1CC(=N)/N=C(\S)Nc1ccc(C#N)cc1` gave an IC50 in assay [1] (setting [10]) of 30 nM. Same read-out and setting: under `N#Cc1ccc(NC(=S)NC(=N)Cc2ccccc2)cc1` stands 380 nM. Same read-out and setting: under `N#Cc1ccc(NC(=S)NC(=N)Cc2cccc(Cl)c2)cc1` stands 68 nM; under `N#Cc1ccc(NC(=S)NC(=N)Cc2ccc(Cl)cc2Cl)cc1`, 7 nM; under `N=C(Cc1c(Cl)cccc1Cl)NC(=S)Nc1ccc(Cl)cc1Cl`, 347 nM.

In turn, `NC(=O)C(NC(=O)c1ccccc1[N+](=O)[O-])c1c(Cl)cccc1Cl` (stereo not given) showed an IC50 in assay [1] (setting [10]) above 79000 nM.

Turning to `NC(=O)C(Nc1ccccc1[N+](=O)[O-])c1c(Cl)cccc1Cl` (stereo not given), 100 nM corresponded to half-maximal inhibition in assay [1] (setting [10]) (IC50).

With `CC(C(=N)/N=C(\S)Nc1ccc(C#N)cc1)c1c(Cl)cccc1Cl` (stereo not given), the IC50 in [1] (setting [10]) stood at 158 nM. The same measure, in the same setting: with `N#Cc1ccc(NC(=S)/N=C(/Cc2c(Cl)cccc2Cl)Nc2ccccc2)cc1` the figure was 1320 nM; with `NC(=O)C(NC(=O)Nc1ccccc1[N+](=O)[O-])c1c(Cl)cccc1Cl` (stereo not given), above 320000 nM; with `N#Cc1ccc(NC(=S)NC(=N)Cc2ccccc2Cl)cc1`, 14 nM. Same read-out and setting: under `N#Cc1ccc(NC(=S)NC(=N)CCc2c(Cl)cccc2Cl)cc1` stands 525 nM; under `N=C(Cc1c(Cl)cccc1Cl)NC(=S)Nc1ccccc1`, 123 nM; under `N=C(Cc1c(Cl)cccc1Cl)NC(=S)Nc1c(Cl)cc(Cl)cc1Cl`, 42700 nM. `CCN/C(Cc1c(Cl)cccc1Cl)=N\C(S)=N\c1ccc(C#N)cc1` had an IC50 in assay [1] (setting [10]) of 158 nM. As for `N#Cc1ccc(NC(=O)NC(=N)Cc2c(Cl)cccc2Cl)cc1`, the 50% inhibitory concentration (IC50) in assay [1] (setting [10]) is 15 nM. `N=C(Cc1c(Cl)cccc1Cl)NC(=S)NCCc1ccc(Cl)cc1` had an IC50 in [1] (setting [10]) of 1620 nM. For the compound `N#Cc1ccc(NC(=S)NS(=O)(=O)Cc2c(Cl)cccc2Cl)cc1`, 100000 nM corresponded to half-maximal inhibition in [1] (setting [10]) (IC50).

For `N#Cc1ccccc1NC(=S)NC(=N)Cc1c(Cl)cccc1Cl`, the IC50 in assay [1] (setting [10]) is 631000 nM. Still for that read-out and setting: with `NC(=O)C(/N=C(\S)Nc1ccc(Cl)cc1)c1c(Cl)cccc1Cl` (stereo not given) the figure was 160 nM; with `N#Cc1cccc(NC(=S)NC(=N)Cc2c(Cl)cccc2Cl)c1`, 126 nM. Same read-out and setting: with `NC(=O)C(/N=C(\S)Nc1ccccc1Cl)c1c(Cl)cccc1Cl` (stereo not given) the figure was above 60000 nM. On the same count and under the same terms, with `N#Cc1ccc(NC(=S)NC(=O)Cc2c(Cl)cccc2Cl)cc1` the figure was 631000 nM; with `NC(=O)C(NCc1ccccc1[N+](=O)[O-])c1c(Cl)cccc1Cl` (stereo not given), above 250000 nM.

For the compound `NC(=O)C(Nc1ccccc1Cl)c1c(Cl)cccc1Cl` (stereo not given), it took 400 nM to reach half-maximal inhibition in assay [1] (setting [10]) (IC50). This lies in the sub-micromolar range. The same measure, in the same setting: under `N#Cc1ccc(NC(=S)NC(=N)Cc2c(Cl)ccc(Cl)c2Cl)cc1` stands 5 nM; under `N#Cc1ccc(NC(=S)NC(=N)Cc2ccc(Cl)cc2)cc1`, 148 nM; under `NC(=O)C(/N=C(\S)Nc1cccc(Cl)c1)c1c(Cl)cccc1Cl` (stereo not given), 5200 nM. With `CC(C)Nc1cccnc1N1CCN(C(=O)c2cc3cc(NS(C)(=O)=O)ccc3[nH]2)CC1` [DELAVIRDINE MESYLATE], the IC50 came to 2510 nM with MT4 [2]; 2000 nM in the assay with MT4 [3]; 63 nM in the assay on MT4 [4]; 1260 nM in the assay with MT4 [5]; 158 nM with MT4 [6]; 63 nM in the assay on MT4 [7]. Moreover, the IC50 in the assay with MT4 [8] turned out to be 2510 nM; with MT4 [9], 1590 nM. As to `CC(=O)c1ccc(C)cc1NC(C(N)=O)c1c(Cl)cccc1Cl` (stereo not given) [LOVIRIDE], the IC50 was 1260 nM in the assay with MT4 [2]; 15800 nM with MT4 [3]; 2510 nM in the assay with MT4 [4]; 50100 nM in the assay with MT4 [5]; 63 nM in the assay with MT4 [6]; 50 nM in the assay on MT4 [7]. The IC50 worked out at 50 nM in the assay with MT4 [8] and 1000 nM in the assay with MT4 [9].
